What all share (type): cell-based
Experiment [1] has as its system IL-6 expression by Human Umbilical Vein Endothelial Cells. The experiment is described as follows: IL-6 ELISA of HUVEC tissue culture supernatant. The conditions noted are these: without PMA. As for the experimental part:
An in vitro model has been developed to investigate the impact of chronic stress on the inflammatory status of endothelial cells. • a. Cells are grown in 6-well (9.5 cm^2) plates. • b. […] Tissue culture supernatant and cell pellets are harvested at timepoint T0. • d. The cells are oxidatively stressed with 1 μM Phorbol Myristate Acetate (PMA). • e. Tissue culture supernatant and cell pellets were harvested at 6, 24 and 48 hours (T6, T24 and T48, respectively) post-PMA treatment. • f. All tissue culture supernatant was assayed for Lactate Dehydrogenase (LDH), as a measure of cytotoxicity, and Interleukin-6 synthesis. • g. All cells were counted (Beckman Coulter Counter) and pelleted and cell lysate assayed for ICAM-1 expression (Intra Cellular Adhesion Molecule 1).
(In general: ELISA stands for enzyme-linked immunosorbent assay.)

Experiment [2] concerns MMP-1 expression in human neonatal dermal fibroblast cells. The experiment is described as follows: Active MMP-1 in neonatal-derived human dermal fibroblasts after chronic dexamethasone and PMA. The conditions noted are these: for Suppression of MMP-1 synthesis and secretion vs control, untreated cells: chronic 1 μM dexamethasone 5 days then 1 μM PMA, neonatal fibroblasts. As for the experimental part: (§1) In this study, to understand better the effect of chronic stress on dermal matrix remodelling in the skin, we have therefore measured changes in markers of dermal matrix degradation (MMP-1) and dermal matrix synthesis (Procollagen I) in chronically glucocorticoid-treated primary human dermal fibroblasts, following acute stress with PMA. The experimental approach is similar to that described in example 1 except that the cells tested are dermal fibroblasts and cells are assayed for expression of procollagen-1, MMP-1 and MMP-9 expression.
(§2) Primary human dermal fibroblast cells were cultured and passaged in DMEM (Gibco) supplemented with 10% FBS (foetal bovine serum). Cells were routinely plated out in 6-well tissue culture dishes, at a seeding density of ˜5000 cells/cm^2 in 2 ml complete medium/well for 24 hours, and incubated at 37° C. in 5% CO2. Media was removed and cells grown in DMEM & 1% FBS, 24 hours prior to treatments.
(§3) Pre-treatment and test solutions were prepared in DMEM containing low serum (1% FBS). […] Following this, the cells were oxidatively stressed for 24 hours with 1 μM PMA (Sigma P8139).
MMP-1 and MMP-9 protein in each cell supernatant was estimated using the Human active MMP-1 and MMP-9 Fluorokine enzyme kit (R&D Systems F1M00 and F9M00, respectively), according to the manufacturer's instructions.
Six MMP-1 and MMP-9 standards were prepared in calibrator diluent at concentrations ranging from 0.39 to 12.5 ng/ml and 0.25 to 16 ng/ml, respectively. 100 μl of assay diluent and 150 μl of tissue culture supernatant or standard was added to duplicate wells. The plate was incubated at room temperature for 3 hours on a horizontal orbital plate shaker before being washed four times with wash buffer. 200 μl of APMA was added to each well and the plate incubated at 37° C. for 2 hours in a humidified environment and protected from the light. The plate was washed as before. Each well received 200 μl of substrate solution and the plate incubated at 37° C. for 17-20 hours in a humidified environment and protected from the light. The relative fluorescence unit (RFU) of each well was determined using a fluorescence plate set with 1×20 mS integration time, plate speed ˜6; excitation wavelength set to 320 nm and emission wavelength set to 405 nm.
A standard curve was plotted of mean RFU versus MMP-1 and MMP-9 concentration (respectively), and the line of best fit calculated by regression analysis. The unknown concentration of either active MMP-1 or MMP-9 protein in all of the samples was estimated from this.
(§4) The same methods were used as described in Example 2, except that various test agents were added to the cells during the pre-treatment period.

The subject of experiment [3] is IL-6 expression in neonatal-derived human dermal fibroblasts. Put plainly: IL-6 in neonatal-derived human dermal fibroblasts after chronic dexamethasone and PMA. Conditions: GC-treated neonatal fibroblasts after PMA; T6 and T24; data not shown. As for the experimental part:
The IL-6 protein concentration of each tissue culture supernatant was assayed using the QuantiGlo Q6000 Human IL-6 assay (R&D Systems) according to the manufacturer's instructions.
Six IL-6 standards were prepared in calibrator diluent at concentrations ranging from 0 to 3000 pg/ml. 50 μl of assay diluent and 150 μl of tissue culture supernatant or standard was added to duplicate wells. The plate was incubated at room temperature for 2 hours on a horizontal orbital plate shaker before being washed four times with wash buffer. 200 μl of IL-6 conjugate was added to each well and the plate incubated at room temperature for 3 hours on a horizontal orbital plate shaker (˜500 rpm). The plate was washed as before. […] The relative light unit (RLU) of each well was determined using a luminometer set with 1 minute lag time, 1 second/well read time, summation mode and automatic gain on.
A standard curve was plotted of mean RLU versus IL-6 concentration and the line of best fit calculated by regression analysis. […]
In this study, to understand better the effect of chronic stress on dermal matrix remodelling in the skin, we have therefore measured changes in markers of dermal matrix degradation (MMP-1) and dermal matrix synthesis (Procollagen I) in chronically glucocorticoid-treated primary human dermal fibroblasts, following acute stress with PMA. […]

Experiment [4] deals with procollagen-1 expression in human neonatal dermal fibroblast cells. The experiment is described as follows: Procollagen I C-peptide EIA in neonatal-derived human dermal fibroblasts after chronic dexamethasone and PMA. The conditions noted are these: chronic dexamethasone then 1 μM PMA; T6; neonatal fibroblasts; FIG. 8. As for the experimental part:
as §1, §2, §3
Collagen I is synthesised as a precursor molecule, Procollagen I. The amount of free propeptide therefore, reflects stoichiometrically, the amount of collagen I synthesised. The Procollagen Type I C-peptide Enzyme Immunoassay (EIA) kit allows for the quantitative determination of Procollagen Type I C-peptide (PIP).
Eight PIP standards were prepared in sample diluent at concentrations ranging from 0 to 640 ng/ml. 100 μl of antibody-Peroxidase conjugate solution and 20 μl of cell lysate (1 μg protein) or standard was added to duplicate wells. The plate was sealed and incubated at 37° C. for 3 hours before being washed four times with 400 μl of PBS. Each well then received 100 μl of substrate solution and the plate incubated at room temperature, on the benchtop, for 15 minutes. After this period, 100 μl stop solution was added to each well and absorbance measured at 450 nm with a plate reader.
A standard curve was plotted of mean absorbance versus PIP concentration and the line of best fit calculated by regression analysis. The unknown concentration of PIP in all the samples was estimated from this.
as §4

For the molecule `C[C@@H]1C[C@H]2[C@@H]3CCC4=CC(=O)C=C[C@]4(C)[C@@]3(F)[C@@H](O)C[C@]2(C)[C@@]1(O)C(=O)CO` [Dexamethasone], the “IL-6 secretion with glucocorticoid alone” value in experiment [1] is reported as “did not cause increased secretion of IL-6”. The “Level of active MMP-1” value in experiment [2] (GC-treated neonate fibroblasts) came out at 15 ng/mL. Further, the “Suppression of MMP-1 synthesis and secretion vs control, untreated cells” value in experiment [2] (T6) is recorded as approximately 60%; in experiment [2] (T24) it was 80%; in experiment [2] (T48), 70%. Further, the “Reduction in Interleukin-6 synthesis vs vehicle treated cells” value in experiment [3] is approximately 80%. The “Inhibition of Procollagen-1 synthesis vs control, untreated cells” value in experiment [4] is approximately 50%.

Source of the values: patent publication US20080254152A1, “Methods for Reducing the Effects of Stress on Skin Condition” (priority 2003, published 2008).
